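Protocol summary: plate cells (96-well), add compound at 5 concentrations, incubate 48 h, interpolate endpoints linearly. GI50 is the concentration that inhibits growth by half.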 Calls of active or inactive are those of the source. No stated cut-off is given here; in the data, active = GI50 up to about 1.1 µM and inactive = higher.
Columns and labels:
Experiment in all cases: NCI-60 cell line screen, 48 h
[1] = system: OVCAR-5
[2] = system: OVCAR-8
[3] = system: SK-MEL-28
[4] = system: TK-10
[5] = system: U-251
[6] = system: COLO 205
[7] = system: NCI-H23
[8] = system: RPMI-8226
[9] = system: MDA-MB-435
[10] = system: SNB-19
[11] = system: NCI-H460
[12] = system: MDA-N
[13] = system: HOP-92
[14] = system: SW-620
[15] = system: EKVX
[16] = system: HT-29
[17] = system: Malme-3M
[18] = system: SK-MEL-2
[19] = system: K562
[20] = system: HCC 2998

| SMILES | GI50 [1] | GI50 [2] | GI50 [3] | GI50 [4] | GI50 [5] | GI50 [6] | GI50 [7] | GI50 [8] | GI50 [9] | GI50 [10] | GI50 [11] | GI50 [12] | GI50 [13] | GI50 [14] | GI50 [15] | GI50 [16] | GI50 [17] | GI50 [18] | GI50 [19] | GI50 [20] |
| --- | --- | --- | --- | --- | --- | --- | --- | --- | --- | --- | --- | --- | --- | --- | --- | --- | --- | --- | --- | --- |
| NS(=O)(=O)c1cc(C(=O)O)c(O)c2ccccc12 | > 100 µM (inactive) | > 100 µM (inactive) | > 100 µM (inactive) | > 100 µM (inactive) | > 100 µM (inactive) | > 100 µM (inactive) | > 100 µM (inactive) | > 100 µM (inactive) | > 100 µM (inactive) | > 100 µM (inactive) | > 100 µM (inactive) | > 100 µM (inactive) | > 100 µM (inactive) | > 100 µM (inactive) | > 100 µM (inactive) | > 100 µM (inactive) | 92 µM (inactive) | > 100 µM (inactive) | > 100 µM (inactive) | – |
| COc1ccc(-c2c(=O)[nH]n3c(=S)[nH]c(-c4ccccc4)nc23)cc1OC | 20.7 µM (inactive) | 20.8 µM (inactive) | 21.3 µM (inactive) | 22.6 µM (inactive) | 17.5 µM (inactive) | 16.8 µM (inactive) | 21.3 µM (inactive) | – | 18.9 µM (inactive) | 15 µM (inactive) | 29 µM (inactive) | 14.8 µM (inactive) | 17.7 µM (inactive) | 30.1 µM (inactive) | 22.5 µM (inactive) | 21.6 µM (inactive) | 19.2 µM (inactive) | – | 12.9 µM (inactive) | 18.5 µM (inactive) |
| CN(CCCNC(=O)c1cn(C)c2c1Cc1ccccc1-2)CCCNC(=O)c1cn(C)c2c1Cc1ccccc1-2 | 15.6 µM (inactive) | 5.86 µM (inactive) | 10.8 µM (inactive) | 11.6 µM (inactive) | 7.43 µM (inactive) | 1.9 µM (inactive) | 14.2 µM (inactive) | 21.3 µM (inactive) | 2.21 µM (inactive) | 11.4 µM (inactive) | 8.89 µM (inactive) | 3.58 µM (inactive) | 2.13 µM (inactive) | 3.66 µM (inactive) | 9.4 µM (inactive) | 2.32 µM (inactive) | 11.7 µM (inactive) | 16.7 µM (inactive) | 2.78 µM (inactive) | – |
| COC1=C(OC)C(=O)C(Cc2c(Cl)nc3n2CCS3)=C(C)C1=O | 17.6 µM (inactive) | 15.3 µM (inactive) | 14.2 µM (inactive) | 15.6 µM (inactive) | 17.5 µM (inactive) | 17.2 µM (inactive) | 12.3 µM (inactive) | 6.53 µM (inactive) | 13.9 µM (inactive) | 16.2 µM (inactive) | 15 µM (inactive) | 13.9 µM (inactive) | – | 18 µM (inactive) | 12.1 µM (inactive) | 17 µM (inactive) | 7.83 µM (inactive) | 14.6 µM (inactive) | 15.5 µM (inactive) | 16.5 µM (inactive) |
| COc1cc(C2CC(C)(N3CCCC3)Oc3cc4c(cc32)OCO4)cc(OC)c1OC (configuration not stated) | > 100 µM (inactive) | 0.524 µM (active) | 0.569 µM (active) | – | 0.279 µM (active) | 2.9 µM (inactive) | – | – | 0.0211 µM (active) | 0.277 µM (active) | 0.288 µM (active) | 0.0275 µM (active) | 62.1 µM (inactive) | 0.167 µM (active) | 0.456 µM (active) | 0.165 µM (active) | 0.21 µM (active) | 0.408 µM (active) | 0.0371 µM (active) | 0.618 µM (active) |
| O=C1N/C(=N/N=C/c2c[nH]c3ccccc23)N/C1=C\c1c[nH]c2ccccc12 | 39.4 µM (inactive) | 15.8 µM (inactive) | 22.1 µM (inactive) | 94.2 µM (inactive) | 17.3 µM (inactive) | 13.8 µM (inactive) | 18.2 µM (inactive) | 12.9 µM (inactive) | 24.5 µM (inactive) | 69.7 µM (inactive) | 36.8 µM (inactive) | 27.6 µM (inactive) | 16.8 µM (inactive) | 18.2 µM (inactive) | 25.6 µM (inactive) | 23.1 µM (inactive) | 15.5 µM (inactive) | 20.3 µM (inactive) | 14.7 µM (inactive) | – |
| COc1ccc2c(c1)C(=O)[C@@](Nc1ccc(C=O)cc1)(OC)[C@@](OC)(c1ccc([N+](=O)[O-])cc1)O2 | > 10 µM (inactive) | > 10 µM (inactive) | > 10 µM (inactive) | > 10 µM (inactive) | > 10 µM (inactive) | > 10 µM (inactive) | > 10 µM (inactive) | > 10 µM (inactive) | > 10 µM (inactive) | > 10 µM (inactive) | > 10 µM (inactive) | > 10 µM (inactive) | – | > 10 µM (inactive) | > 10 µM (inactive) | > 10 µM (inactive) | > 10 µM (inactive) | > 10 µM (inactive) | > 10 µM (inactive) | > 10 µM (inactive) |
| CCCc1n[nH]c(=O)n1N1C(=O)C=CC1=O | > 100 µM (inactive) | – | – | > 100 µM (inactive) | > 100 µM (inactive) | > 100 µM (inactive) | > 100 µM (inactive) | – | > 100 µM (inactive) | – | > 100 µM (inactive) | > 100 µM (inactive) | – | – | > 100 µM (inactive) | – | > 100 µM (inactive) | > 100 µM (inactive) | > 100 µM (inactive) | > 100 µM (inactive) |
| Cc1cc2c(-c3ccccc3)cc(=O)[nH]c2cc1N | > 100 µM (inactive) | > 100 µM (inactive) | > 100 µM (inactive) | – | > 100 µM (inactive) | > 100 µM (inactive) | > 100 µM (inactive) | > 100 µM (inactive) | > 100 µM (inactive) | > 100 µM (inactive) | > 100 µM (inactive) | > 100 µM (inactive) | > 100 µM (inactive) | > 100 µM (inactive) | > 100 µM (inactive) | > 100 µM (inactive) | – | > 100 µM (inactive) | > 100 µM (inactive) | > 100 µM (inactive) |
| C=CCOc1ccc(C2C(C(=O)OC)C(=O)CC(O)(c3ccccc3)C2C(=O)OC)cc1OC (configuration not stated) | > 100 µM (inactive) | 19.7 µM (inactive) | 41 µM (inactive) | 33.7 µM (inactive) | 32 µM (inactive) | 63.1 µM (inactive) | 31.8 µM (inactive) | – | 41.1 µM (inactive) | > 100 µM (inactive) | 30.3 µM (inactive) | 58.9 µM (inactive) | 18 µM (inactive) | > 100 µM (inactive) | 62.7 µM (inactive) | 42.2 µM (inactive) | 31.6 µM (inactive) | 26.4 µM (inactive) | 51.2 µM (inactive) | 40.5 µM (inactive) |
| C=CCNC(=S)N/C=C(\C#N)C(N)=O | > 100 µM (inactive) | > 100 µM (inactive) | > 100 µM (inactive) | – | > 100 µM (inactive) | > 100 µM (inactive) | > 100 µM (inactive) | > 100 µM (inactive) | > 100 µM (inactive) | > 100 µM (inactive) | > 100 µM (inactive) | > 100 µM (inactive) | – | > 100 µM (inactive) | > 100 µM (inactive) | > 100 µM (inactive) | > 100 µM (inactive) | > 100 µM (inactive) | > 100 µM (inactive) | > 100 µM (inactive) |
| Nc1c(C(=O)c2ccc(Cl)c(Cl)c2)[nH]c(NCc2ccccc2)c1C(=S)Nc1ccccc1 | 13.6 µM (inactive) | 14.7 µM (inactive) | 4.63 µM (inactive) | 17.8 µM (inactive) | 3.96 µM (inactive) | 1.78 µM (inactive) | 18.2 µM (inactive) | 2.65 µM (inactive) | 5.08 µM (inactive) | 18.5 µM (inactive) | 5.42 µM (inactive) | 3.64 µM (inactive) | – | 3.22 µM (inactive) | 14.7 µM (inactive) | 3.23 µM (inactive) | 3.13 µM (inactive) | 12.4 µM (inactive) | 3.32 µM (inactive) | 1.74 µM (inactive) |
| CSc1nc(=O)cnn1C | > 100 µM (inactive) | > 100 µM (inactive) | > 100 µM (inactive) | > 100 µM (inactive) | > 100 µM (inactive) | > 100 µM (inactive) | > 100 µM (inactive) | > 100 µM (inactive) | > 100 µM (inactive) | > 100 µM (inactive) | > 100 µM (inactive) | > 100 µM (inactive) | – | > 100 µM (inactive) | > 100 µM (inactive) | > 100 µM (inactive) | > 100 µM (inactive) | > 100 µM (inactive) | > 100 µM (inactive) | > 100 µM (inactive) |
| FC(F)(F)c1ccc2c(c1)nc(-c1ccc(Cl)cc1)n2CC1CCCN2CCCCC12 (configuration not stated) | 6.41 µM (inactive) | 15.6 µM (inactive) | 14.9 µM (inactive) | 14.9 µM (inactive) | 14.2 µM (inactive) | 11.6 µM (inactive) | – | – | 16.9 µM (inactive) | 17.1 µM (inactive) | 16.6 µM (inactive) | 15.7 µM (inactive) | 12.8 µM (inactive) | 18.5 µM (inactive) | 9.91 µM (inactive) | 4.98 µM (inactive) | 15.3 µM (inactive) | 15.9 µM (inactive) | – | 13.5 µM (inactive) |
| Cc1cc2cc3cc(C)c(N)cc3nc2cc1N [ACRIDINE YELLOW] | 0.798 µM (active) | 0.518 µM (active) | 1.51 µM (inactive) | 0.635 µM (active) | 0.863 µM (active) | 0.757 µM (active) | 0.794 µM (active) | 0.217 µM (active) | 4.4 µM (inactive) | 0.716 µM (active) | 0.358 µM (active) | 1.57 µM (inactive) | 0.726 µM (active) | 0.321 µM (active) | 0.535 µM (active) | 0.359 µM (active) | 1.26 µM (inactive) | 3.88 µM (inactive) | 0.687 µM (active) | – |

From ChEMBL document CHEMBL1201862, “PubChem BioAssay data set” (2004)
